Measurements from patent US11254663B2 (BRISTOL-MYERS SQUIBB COMPANY, priority 2019, dated 2022).

The compounds below were run against FXR (Homo sapiens (Human), UniProt Q96RI1) (assay: transient human FXR/Gal4-luciferase reporter assay). Conditions: not given.
Format: cell-based
How it was run: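 HEK293 cells stably carrying a 5×Gal4 response element–firefly luciferase reporter were transiently transfected overnight with a Gal4 DBD–human FXR LBD fusion plasmid. Compound was added in DMSO and cells were incubated overnight at 37 °C, 5% CO2. Activity was read as Steady-Glo luminescence.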

FXR, sequence (Q96RI1 262-486): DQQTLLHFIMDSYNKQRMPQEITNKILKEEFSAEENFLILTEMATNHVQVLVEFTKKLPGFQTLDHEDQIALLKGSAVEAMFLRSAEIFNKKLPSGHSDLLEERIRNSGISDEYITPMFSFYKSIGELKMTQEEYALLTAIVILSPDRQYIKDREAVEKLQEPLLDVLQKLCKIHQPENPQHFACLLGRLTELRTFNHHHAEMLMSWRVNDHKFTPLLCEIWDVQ

| Structure (SMILES) | EC50 [nM] |
| --- | --- |
| CCOc1ncc(-c2cccc(N(CC34CCC(c5noc(C(C)(C)C)n5)(CC3)CC4)C(=O)[C@H]3C[C@@H](OC)C3)c2)cn1 [Example 511, (1S,3S)—N-((4-(5-(tert-butyl)-1,2,4-oxadiazol-3-yl)bicyclo[2.2.2]octan-1-yl)methyl)-N-(3-(2-ethoxypyrimidin-5-yl)phenyl)-3-methoxycyclobutane-1-carboxamide] | 411 |
| CC(C)(C)c1nc(C23CCC(CN(C(=O)C45CC(F)(C4)C5)c4cc(-c5ccc(OC(F)F)cn5)ccn4)(CC2)CC3)no1 [Example 544, N-((4-(5-(tert-butyl)-1,2,4-oxadiazol-3-yl)bicyclo[2.2.2]octan-1-yl)methyl)-N-(5-(difluoromethoxy)-[2,4′-bipyridin]-2′-yl)-3-fluorobicyclo[1.1.1]pentane-1-carboxamide] | 20 |
| CCOc1ncc(-c2cccc(N(CC34CCC(c5noc(C6(C)COC6)n5)(CC3)CC4)C(=O)[C@H]3C[C@](O)(C(F)(F)F)C3)c2)cn1 [Example 520, (1S,3S)—N-(3-(2-ethoxypyrimidin-5-yl)phenyl)-3-hydroxy-N-((4-(5-(3-methyloxetan-3-yl)-1,2,4-oxadiazol-3-yl)bicyclo[2.2.2]octan-1-yl)methyl)-3-(trifluoromethyl)cyclobutane-1-carboxamide] | 449 |

Same assay, conditions: Gal4-hFXR fusion construct, HEK293 reporter cells; response relative to 8 μM GW-4064

| Structure (SMILES) | EC50 [nM] |
| --- | --- |
| Cc1ccc(-c2cccc(N(CC34CCC(c5nc(C6CC6)no5)(CC3)CC4)C(=O)C34CC(F)(C3)C4)c2)nc1 [Example 325, N-((4-(3-cyclopropyl-1,2,4-oxadiazol-5-yl)bicyclo[2.2.2]octan-1-yl)methyl)-3-fluoro-N-(3-(5-methylpyridin-2-yl)phenyl)bicyclo[1.1.1]pentane-1-carboxamide] | 24 |
| CCOc1ncc(-c2ccnc(N(CC34CCC(c5noc(C(C)(C)C)n5)(CC3)CC4)C(=O)C34CC(F)(C3)C4)c2)cn1 [Example 531, N-((4-(5-(tert-butyl)-1,2,4-oxadiazol-3-yl)bicyclo[2.2.2]octan-1-yl)methyl)-N-(4-(2-ethoxypyrimidin-5-yl)pyridin-2-yl)-3-fluorobicyclo[1.1.1]pentane-1-carboxamide] | 159 |
| CC(C)Oc1ccc(-c2ccnc(N(CC34CCC(c5ccc(C(C)(F)F)cn5)(CC3)CC4)C(=O)[C@H]3C[C@@](C)(OC(F)F)C3)c2)cc1 [Example 640, (cis)-N-((4-(5-(1,1-difluoroethyl)pyridin-2-yl)bicyclo[2.2.2]octan-1-yl)methyl)-3-(difluoromethoxy)-N-(4-(4-isopropoxyphenyl)pyridin-2-yl)-3-methylcyclobutane-1-carboxamide] | 27 |
| Cc1cnc(-c2cccc(N(CC34CCC(c5nc(C6CC6)no5)(CC3)CC4)C(=O)C34CC(F)(C3)C4)c2)cn1 [Example 310, N-((4-(3-cyclopropyl-1,2,4-oxadiazol-5-yl)bicyclo[2.2.2]octan-1-yl)methyl)-3-fluoro-N-(3-(5-methylpyrazin-2-yl)phenyl)bicyclo[1.1.1]pentane-1-carboxamide] | 59 |
| CC(C)(F)c1nc(C23CCC(CN(C(=O)OC(C)(C)C(F)(F)F)c4cc(-c5cnn(CC6COC6)c5)c(F)cn4)(CC2)CC3)no1 [Example 621, 1,1,1-trifluoro-2-methylpropan-2-yl(5-fluoro-4-(1-(oxetan-3-ylmethyl)-1H-pyrazol-4-yl)pyridin-2-yl)((4-(5-(2-fluoropropan-2-yl)-1,2,4-oxadiazol-3-yl)bicyclo[2.2.2]octan-1-yl)methyl)carbamate] | 84 |
| COc1ccc(-c2cccc(N(CC34CCC(c5nc(C6CC6)no5)(CC3)CC4)C(=O)C34CC(F)(C3)C4)c2)cn1 [Example 249, N-((4-(3-cyclopropyl-1,2,4-oxadiazol-5-yl)bicyclo[2.2.2]octan-1-yl)methyl)-3-fluoro-N-(3-(6-methoxypyridin-3-yl)phenyl)bicyclo[1.1.1]pentane-1-carboxamide] | 153 |
